Tests used:
Nociceptin receptor [1] = target: T1, Nociceptin receptor (Homo sapiens, UniProt P41146); test: Displacement of [125I]Tyr14-NC/OFQ from human ORL1 receptor
Mu-type opioid receptor = Mu-type opioid receptor (Homo sapiens, UniProt P35372); test: Displacement of [3H]diprenorphin from human cloned mu opioid receptor expressed in CHO cells; assay type: cell-based
[2] = target: Voltage-gated inwardly rectifying potassium channel KCNH2 (Homo sapiens, UniProt Q12809); test: Displacement of [35S]MK499 from human ERG expressed in HEK293 cells
Nociceptin receptor [3] = target: T1, Nociceptin receptor; test: Antagonist activity at ORL1 receptor expressed in CHO cells assessed as inhibition of NC/OFQ-stimulated [35S]GTPgammaS binding; assay type: functional, cell-based
[4] = target: Kappa-type opioid receptor (Homo sapiens, UniProt P41145); test: Displacement of [3H]U69593 from human cloned kappa opioid receptor expressed in CHO cells; assay type: cell-based
[5] = Lipophilicity, log D at pH 7.4 by shake-flask method; assay type: physicochemical; conditions: buffer

Sequence of Voltage-gated inwardly rectifying potassium channel KCNH2 (Q12809 whole entry): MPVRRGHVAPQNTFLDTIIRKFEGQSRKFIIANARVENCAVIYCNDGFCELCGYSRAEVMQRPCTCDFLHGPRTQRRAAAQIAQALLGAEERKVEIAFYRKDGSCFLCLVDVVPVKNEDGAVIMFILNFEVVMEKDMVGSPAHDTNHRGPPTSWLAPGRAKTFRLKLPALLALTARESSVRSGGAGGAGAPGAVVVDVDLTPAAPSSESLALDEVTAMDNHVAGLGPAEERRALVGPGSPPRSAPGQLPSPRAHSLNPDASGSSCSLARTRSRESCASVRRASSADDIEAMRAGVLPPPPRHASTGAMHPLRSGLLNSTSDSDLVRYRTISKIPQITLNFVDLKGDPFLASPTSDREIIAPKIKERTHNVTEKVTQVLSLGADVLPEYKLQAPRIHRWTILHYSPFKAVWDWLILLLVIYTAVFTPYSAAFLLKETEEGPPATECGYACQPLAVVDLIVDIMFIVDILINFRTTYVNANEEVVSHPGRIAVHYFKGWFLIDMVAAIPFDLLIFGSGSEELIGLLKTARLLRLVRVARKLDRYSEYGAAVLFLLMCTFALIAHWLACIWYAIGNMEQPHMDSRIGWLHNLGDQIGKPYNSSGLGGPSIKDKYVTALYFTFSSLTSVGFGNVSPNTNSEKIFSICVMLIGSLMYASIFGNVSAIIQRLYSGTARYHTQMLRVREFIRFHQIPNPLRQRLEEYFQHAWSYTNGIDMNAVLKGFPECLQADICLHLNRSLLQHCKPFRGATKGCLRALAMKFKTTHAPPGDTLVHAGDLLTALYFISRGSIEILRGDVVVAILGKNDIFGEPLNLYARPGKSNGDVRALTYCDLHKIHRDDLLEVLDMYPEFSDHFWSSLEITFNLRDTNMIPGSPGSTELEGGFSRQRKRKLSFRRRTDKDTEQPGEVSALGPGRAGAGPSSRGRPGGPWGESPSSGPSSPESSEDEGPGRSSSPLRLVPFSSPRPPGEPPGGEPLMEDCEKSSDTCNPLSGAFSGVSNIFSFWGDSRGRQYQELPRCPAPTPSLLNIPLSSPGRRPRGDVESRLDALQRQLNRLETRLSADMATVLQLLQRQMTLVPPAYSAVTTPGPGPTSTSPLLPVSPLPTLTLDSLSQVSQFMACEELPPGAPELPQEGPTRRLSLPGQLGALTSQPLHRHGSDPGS
T1 sequence (P41146 whole entry): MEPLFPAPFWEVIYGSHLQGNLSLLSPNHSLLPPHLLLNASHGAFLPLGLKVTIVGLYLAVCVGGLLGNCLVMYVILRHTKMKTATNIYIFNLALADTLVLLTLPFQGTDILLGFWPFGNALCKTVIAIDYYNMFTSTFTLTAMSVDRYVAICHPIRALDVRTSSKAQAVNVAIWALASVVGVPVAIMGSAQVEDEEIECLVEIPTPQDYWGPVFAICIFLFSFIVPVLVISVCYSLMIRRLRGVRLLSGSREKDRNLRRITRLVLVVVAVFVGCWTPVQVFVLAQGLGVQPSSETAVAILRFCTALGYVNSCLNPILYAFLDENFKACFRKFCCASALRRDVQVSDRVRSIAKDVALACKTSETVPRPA
Sequence of Kappa-type opioid receptor (P41145 whole entry): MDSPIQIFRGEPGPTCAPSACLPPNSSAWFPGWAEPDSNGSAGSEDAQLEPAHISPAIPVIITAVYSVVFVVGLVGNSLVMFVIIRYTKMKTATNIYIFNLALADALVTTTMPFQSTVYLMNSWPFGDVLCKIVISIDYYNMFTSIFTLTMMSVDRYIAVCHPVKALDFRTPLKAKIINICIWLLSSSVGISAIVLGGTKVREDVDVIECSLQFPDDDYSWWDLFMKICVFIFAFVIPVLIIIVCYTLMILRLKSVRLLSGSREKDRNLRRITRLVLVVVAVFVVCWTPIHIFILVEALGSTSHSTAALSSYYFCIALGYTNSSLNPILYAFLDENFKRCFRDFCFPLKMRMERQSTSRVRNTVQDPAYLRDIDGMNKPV
Sequence of Mu-type opioid receptor (P35372 whole entry): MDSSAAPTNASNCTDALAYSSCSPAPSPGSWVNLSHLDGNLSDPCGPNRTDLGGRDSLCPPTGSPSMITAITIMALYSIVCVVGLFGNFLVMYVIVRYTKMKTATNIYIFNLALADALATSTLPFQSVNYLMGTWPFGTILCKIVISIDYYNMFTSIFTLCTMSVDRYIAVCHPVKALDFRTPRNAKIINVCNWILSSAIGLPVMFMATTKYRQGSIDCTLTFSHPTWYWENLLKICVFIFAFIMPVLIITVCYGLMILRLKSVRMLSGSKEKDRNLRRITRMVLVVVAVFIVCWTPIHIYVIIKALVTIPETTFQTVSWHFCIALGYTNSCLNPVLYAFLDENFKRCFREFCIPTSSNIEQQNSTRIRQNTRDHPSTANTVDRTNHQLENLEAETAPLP

SMILES | IC50 (Nociceptin receptor [1]) [nM] | IC50 (Mu-type opioid receptor) [µM] | IC50 (Nociceptin receptor [3]) [nM] | IC50 [4] [nM] | logD [5] | IC50 [2] [µM]
Cc1c(CN2CCCCC2)nn(-c2ccc(Cl)cc2Cl)c1-c1ccc(Cl)cc1 | 560 | – | – | – | – | –
Cc1c(CNCCC(C)C)nn(-c2ccc(Cl)cc2Cl)c1-c1ccc(Cl)cc1 | 150 | – | – | – | – | –
Cc1c(CNC2CCCCC2)nn(-c2ccc(Cl)cc2Cl)c1-c1ccc(Cl)cc1 | 75 | – | – | – | – | –
Cc1c(CN(C(C)C)C2CCCCC2)nn(-c2ccc(Cl)cc2Cl)c1-c1ccc(Cl)cc1 | > 1000 | – | – | – | – | –
Cc1c(CNC2CCCC2)nn(-c2ccc(Cl)cc2Cl)c1-c1ccccn1 | 530 | – | – | – | – | –
Cc1c(CNC2CCCC2)nn(-c2ccc(Cl)cc2Cl)c1-c1cccnc1 | – | – | – | – | 2.9 | –
Cc1c(CNC2CCCC2)nn(-c2ncccc2Cl)c1-c1cccnc1 | 61 | – | – | – | 1.3 | 23
Cc1c(CNC(C)C)nn(-c2ccc(Cl)cc2Cl)c1-c1ccc(Cl)cc1 | 350 | – | 480 | – | – | 0.023
Cc1c(CNC2CCCC2)nn(-c2ncccc2Cl)c1-c1ccc(C(F)(F)F)nc1 | 270 | – | – | – | 2.2 | –
Cc1ccc(-c2c(C)c(CNC3CCCC3)nn2-c2ncccc2S(C)(=O)=O)cn1 | 72 | – | – | – | – | –
CCc1ccc(-c2c(C)c(CNC3CCCC3)nn2-c2ncccc2Cl)cn1 | 67 | – | – | – | 2 | –
Cc1c(CN(C)C2CCCCC2)nn(-c2ccc(Cl)cc2Cl)c1-c1ccc(Cl)cc1 | > 1000 | – | – | – | – | –
Cc1c(CNC2CCCC2)nn(-c2ccc(Cl)cc2Cl)c1-c1ccncc1 | > 1000 | – | – | – | – | –
Cc1ccc(-c2c(C)c(CNC3CCCC3)nn2-c2ncccc2C(F)(F)F)cn1 | 36 | – | – | – | 1.9 | –
Cc1c(CNCC(C)C)nn(-c2ccc(Cl)cc2Cl)c1-c1ccc(Cl)cc1 | 150 | – | – | – | – | –

The remaining compounds from weak to strong by IC50 (Nociceptin receptor [1]), led by results:

IC50 (Nociceptin receptor [1]) [nM] | IC50 (Mu-type opioid receptor) [µM] | IC50 (Nociceptin receptor [3]) [nM] | IC50 [4] [nM] | logD [5] | SMILES | IC50 [2] [µM]
33 | – | – | – | 1.2 | Cc1ccc(-c2c(C)c(CNC3CCCC3)nn2-c2ncccc2C)cn1 | –
28 | – | – | – | > 4 | Cc1c(CNC2CCCC2)nn(-c2ccc(Cl)cc2Cl)c1-c1ccc(Cl)cc1 | 0.023
13 | – | – | – | 1.6 | Cc1cncc(-c2c(C)c(CNC3CCCC3)nn2-c2ncccc2Cl)c1 | 9
11 | – | 12 | – | 2.1 | Cc1c(CNC2CCCC2)nn(-c2ncccc2Cl)c1-c1ccc(Cl)nc1 | 2.7
9.3 | – | 4.5 | – | 2.1 | Cc1ccc(-c2c(C)c(CNC3CCC(F)(F)C3)nn2-c2ncccc2Cl)cn1 (stereo not given) | 21
8.2 | – | – | – | 2.5 | Cc1ccc(-c2c(C)c(CNC3CCCC3)nn2-c2ncc(Cl)cc2Cl)cn1 | –
7.1 | – | 11 | – | 2 | Cc1ccc(-c2c(C)c(CNC3CCCC3F)nn2-c2ncccc2Cl)cn1 (stereo not given) | 30
4 | – | 4.7 | – | 1.7 | Cc1ccc(-c2c(C)c(CNC3CCCC3)nn2-c2ncccc2Cl)cn1 | 16
2.5 | – | 1 | – | 1.3 | Cc1ccc(-c2c(C)c(CN[C@H]3CC[C@@H](F)C3)nn2-c2ncccc2Cl)cn1 | –
1.1 | – | 1.2 | – | 2.1 | Cc1ncc(-c2c(C)c(CNC3CCCC3)nn2-c2ncccc2Cl)cc1F | –
0.52 | 5.6 | 0.31 | 530 | 1.8 | Cc1ncc(-c2c(C)c(CN[C@H]3CC[C@@H](F)C3)nn2-c2ncccc2Cl)cc1F | 41

— ChEMBL document CHEMBL1136941, “Discovery of novel arylpyrazole series as potent and selective opioid receptor-like 1 (ORL1) antagonists” (Bioorg Med Chem Lett, 2009)
